# What was measured:
# La = target: T1, La (Homo sapiens, UniProt P05455); test: MST, La protein; type: binding
# T1 sequence (P05455 1-408): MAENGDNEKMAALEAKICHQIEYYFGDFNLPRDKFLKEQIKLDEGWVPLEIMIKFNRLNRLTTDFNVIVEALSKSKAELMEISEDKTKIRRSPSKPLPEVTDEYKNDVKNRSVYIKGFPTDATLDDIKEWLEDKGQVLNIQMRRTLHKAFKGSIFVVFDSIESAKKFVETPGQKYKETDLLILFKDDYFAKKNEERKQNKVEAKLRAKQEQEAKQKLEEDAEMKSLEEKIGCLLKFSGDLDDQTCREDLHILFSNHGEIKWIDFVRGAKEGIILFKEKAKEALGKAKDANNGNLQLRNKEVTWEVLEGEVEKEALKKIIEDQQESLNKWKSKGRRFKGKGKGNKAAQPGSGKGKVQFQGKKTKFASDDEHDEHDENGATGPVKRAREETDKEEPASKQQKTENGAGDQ
# H1299 cells = test: Wound healing (cell migration) assay, H1299; type: cell-based, human
# Description: (§1) Cells were seeded in 96 IncuCyte® ImageLock plates (20X10^3 cells per well) for 24 hours, to a near confluency of 95%, before the addition of increasing concentrations of compound. After a further 24 hours, wells were scratched using the IncuCyte® 96-well WoundMaker Tool, and the cells cultured for an additional 48 hours using the IncuCyte® S3 Live-Cell Analysis System (Essen BioScience). The plate was imaged at increments of 120 minutes for a period of 48 hours, and then analysed for relative wound healing.
# [1] = test system: LKR-M cells expressing GFP alone; test: Wound healing assay, LKR-M cells expressing GFP alone; type: cell-based, mouse; conditions: 20 μM 7773 vs DMSO
# Description: as §1
smiles,measurement,setting,value
O=C(c1ccc(Cn2cnnn2)cc1)N1CCCC(Nc2ccc3c(c2)OCO3)C1 (stereo not shown) [compound 7773],Binding to La,La,No binding
same,Wound healing,"H1299 cells; H1299, 20 μM",strongly inhibited
same,Wound healing,"H1299 cells; H1299, lowest concentration 5 μM",discernible inhibition
same,Effect on migration of cells expressing GFP alone,[1],unaffected

# Reference: article PMC8794255, “Small molecule inhibitor of Igf2bp1 represses Kras and a pro-oncogenic phenotype in cancer cells” (RNA Biology, 2021)
